Drawing on patent US4520022A, “Substituted vinyl cephalosporins” (priority 1983, dated 1985), this text covers MIC for one molecule.

Converted amounts (≈) assume the structure as drawn.

The experiment deals with B. fragilis. The experiment can be described thus: In vitro activity against anaerobes (MIC), B. fragilis. It is filed as cell-based. Particulars: Bacteroides fragilis, B. fragilis A21900; β-lactamase (-); clindamycin resistant.

The MIC is the lowest concentration that inhibits growth of the organism. Read a high MIC as a less susceptible organism. `CC1=C(C(=O)O)N2C(=O)[C@@H](NC(=O)[C@H](N)c3ccccc3)[C@H]2SC1` [Cephalexin] gave an MIC of 12.5 µg/mL (≈ 36 µM).
